Data reported in ChEMBL document CHEMBL6083285 (J Med Chem, 2024).

Test: Inhibition of NLRP3 inflammasome activation in LPS-stimulated human whole blood assessed as reduction in IL-1beta release preincubated for 3 hrs followed by nigericin addition and measured after 1 hrs by Alphalisa method
Format: tissue-based
Details: not given

IC50 [nM]	SMILES
450	CC(C)c1cc(F)cc2c1CC(=O)NS(=O)(=O)c1cn(nc1F)C(C)(C)COc1cc-2ccn1
204	CC(C)c1cccc2c1CC(=O)NS(=O)(=O)c1cnn(c1)C1(CCC1)COc1cc-2ccn1
125	CC1(C)COc2cc(ccn2)-c2c(F)cc3c(c2NC(=O)NS(=O)(=O)c2nn1cc2F)CCC3
119	O=C1Nc2c(ccc3c2CCC3)-c2ccnc(c2)OCCn2ccc(n2)S(=O)(=O)N1
421	CC(C)c1cccc2c1CC(=O)NS(=O)(=O)c1cnn(c1)C1(CC1)COc1cc-2ccn1
441	CC(C)c1cccc2c1CC(=O)NS(=O)(=O)c1cnn(c1)C(C)(C1CC1)COc1cc-2ccn1 (configuration not stated)
486	CC(C)c1cc(F)cc2c1CC(=O)NS(=O)(=O)c1cnn(c1)C(C)(CO)COc1cc-2ccn1 (configuration not stated)

The remaining lines, values behind:

SMILES	IC50 [nM]
CC(C)n1ccc(S(=O)(=O)NC(=O)Nc2c(-c3ccnc(OC4CCN(C)CC4)c3)ccc3c2CCC3)n1	440
O=C1Nc2c(ccc3c2CCC3)-c2ccnc(c2)OCCCn2ccc(n2)S(=O)(=O)N1	987
O=C1Nc2c(ccc3c2CCC3)-c2ccnc(c2)OCCCCn2ccc(n2)S(=O)(=O)N1	784
COc1cc(-c2ccc3c(c2NC(=O)NS(=O)(=O)c2nn(C(C)C)cc2F)CCC3)ccn1	230

Test: Inhibition of NLRP3 inflammasome activation mediated pyroptosis in LPS-stimulated human THP-1 cells preincubated for 3 hrs followed by nigericin addition and measured after 1 hrs by resazurin dye based assay
Format: cell-based
Details: not given

SMILES	IC50 [nM]
CC(C)c1cccc2c1CC(=O)NS(=O)(=O)c1cnn(n1)C(C)(C)COc1cc-2ccn1	1680
COc1cc(-c2ccc3c(c2NC(=O)NS(C)(=O)=O)CCC3)ccn1	1010
CC(C)c1cccc2c1CC(=O)NS(=O)(=O)c1cccc(c1)C(C)(C)COc1cc-2ccn1	1460
CC(C)c1cccc2c1CC(=O)NS(=O)(=O)c1ccn(n1)C(C)(C)COc1cc-2ccn1	1700
CC(C)c1cc(F)cc2c1CC(=O)NS(=O)(=O)c1cn(nc1F)C(C)(C)COc1cc-2ccn1	20
CC(C)c1cccc2c1CC(=O)NS(=O)(=O)c1cnn(c1)C1(CCC1)COc1cc-2ccn1	52
CC1(C)COc2cc(ccn2)-c2c(F)cc3c(c2NC(=O)NS(=O)(=O)c2nn1cc2F)CCC3	8
CC(C)c1cccc2c1CC(=O)NS(=O)(=O)c1cn(cn1)C(C)(C)COc1cc-2ccn1	721
O=C1Nc2c(ccc3c2CCC3)-c2ccnc(c2)OCCn2ccc(n2)S(=O)(=O)N1	63
CC1(C)COc2cc(ccn2)-c2ccc3c(c2CC(=O)NS(=O)(=O)c2ccn1n2)CCC3	16000
CC(C)c1cccc2c1CC(=O)NS(=O)(=O)c1cnn(c1)C1(CC1)COc1cc-2ccn1	567
CC(C)c1cccc2c1CC(=O)NS(=O)(=O)c1cnn(c1)C(C)(C1CC1)COc1cc-2ccn1 (configuration not stated)	31
CC(C)c1cccc2c1CC(=O)NS(=O)(=O)c1nn(cc1F)C(C)(C)COc1cc-2ccn1	480
CC(C)c1cc(F)cc2c1CC(=O)NS(=O)(=O)c1cnn(c1)C(C)(CO)COc1cc-2ccn1 (configuration not stated)	83
CC(C)n1ccc(S(=O)(=O)NC(=O)Nc2c(-c3ccnc(OC4CCN(C)CC4)c3)ccc3c2CCC3)n1	46
O=C1Nc2c(ccc3c2CCC3)-c2ccnc(c2)OCCCn2ccc(n2)S(=O)(=O)N1	571
CC(C)n1ccc(S(=O)(=O)NC(=O)Nc2c(-c3ccnc(OC4CCN(C)C4)c3)ccc3c2CCC3)n1 (configuration not stated)	800
O=C1Nc2c(ccc3c2CCC3)-c2ccnc(c2)OCCCCn2ccc(n2)S(=O)(=O)N1	176
COc1cc(-c2ccc3c(c2NC(=O)NS(=O)(=O)c2nn(C(C)C)cc2F)CCC3)ccn1	8

Test: Lipophilicity, logD of compound at pH 7.4
Format: physicochemical
Details: buffer

logD	SMILES
-0.02	CC(C)n1ccc(S(=O)(=O)NC(=O)Nc2c(-c3ccnc(OC4CCN(C)CC4)c3)ccc3c2CCC3)n1
-0.5	CC(C)n1ccc(S(=O)(=O)NC(=O)Nc2c(-c3ccnc(OC4CCN(C)C4)c3)ccc3c2CCC3)n1 (configuration not stated)
